According to patent US7985764B2, “Amide derivative or salt thereof” (Astellas Pharma Inc., priority 2006, dated 2011):
Where a name gives a salt, the structure may show the parent alone.

Columns and labels:
[1] = target: T1, human 5-HT2B receptor (Homo sapiens, UniProt P41595); assay: 5-HT2B receptor binding test; settings: human 5-HT2B receptor expressing HEK293-EBNA cell membrane; radio-ligand [3H] Mesulergine or [3H] Serotonin
T1 construct: expressed in transfected cells; host or cells: HEK293-EBNA
Method: Effects of the compound (I) of the present invention were verified by the following pharmacological tests. • Test Method (1) 5-HT2B Receptor Binding Test • (i) Preparation of Membrane Sample
(§1) Cultured human 5-HT2B receptor expressing HEK293-EBNA cells were washed with a phosphate buffer (PBS)(−). The cells were peeled off with a scraper in the presence of PBS(−), and the cells were recovered by centrifugation (1,000 rpm, 10 minutes, 4° C.). In the presence of 5 mM tris-hydrochloric acid (Tris-HCl) (pH 7.4) buffer, homogenized using a homogenizer (registered trademark: Polytron (PTA 10-TS)), and centrifugation-treated (40,000×g, 10 minutes, 4° C.). In the presence of 50 mM Tris-HCl (pH 7.4) buffer, suspended using Glass-Teflon (registered trademark) homogenizer. By carrying out centrifugation treatment (40,000×g, 10 minutes, 4° C.), suspended in 50 mM Tris-HCl (pH 7.4) and stored at −80° C.
(§2) (ii) Receptor Binding Test
A total volume of 500 μl containing 50 mM Tris-HCl, a 4 mM CaCl2 (pH 7.4) buffer, a human 5-HT2B receptor expressing HEK293-EBNA cell membrane preparation and a radio-ligand [^3H] Mesulergine (3.1 TBq/mmol;) or [^3H] Serotonin (5-Hydroxytryptamine) (3.7 TBq/mmol;) was incubated at 25° C. for 1 hour. The compound was dissolved in 100% dimethyl sulfoxide (DMSO) and diluted to respective concentrations. Binding quantity in the presence of 1 μM ritanserin was regarded as the nonspecific binding, and a result of subtracting the nonspecific binding quantity from the total binding quantity was regarded as the specific binding quantity. After adding 4 ml of 50 mM Tris-HCl buffer (pH 7.4) and filtering under a reduced pressure using a GF/B glass filter, the filter was washed (4 ml×3) with the same buffer. By soaking the glass filter in 5 ml of a liquid scintillator (trade name: Aquasol-2), the radioactivity quantity was measured using a liquid scintillation counter. […] Ex represents the Example compound number which is described later.

[2] = target: T2, human 5-HT7 receptor (Homo sapiens, UniProt P34969); assay: 5-HT7 receptor binding test; settings: human 5-HT7 receptor expressing CHO cell membrane; radio-ligand [3H] 5-HT
T2 construct: expressed in transfected cells; host or cells: CHO
Method: Test Method (2) 5-HT7 Receptor Binding Test (i) Preparation of Membrane Sample
as §1, with “5-HT7” for “5-HT2B”, “CHO” for “HEK293-EBNA”, “PBS(−).” for “a phosphate buffer (PBS)(−).”, “Tris-HCl” for “tris-hydrochloric acid (Tris-HCl)”
as §2
A total volume of 500 μl containing 50 mM Tris-HCl, a 4 mM CaCl2 (pH 7.4) buffer, a human 5-HT7 receptor expressing CHO cell membrane preparation and a radio-ligand [^3H] 5-HT (3.40 TBq/mmol) was incubated at 25° C. for 1 hour. The compound was dissolved in 100% DMSO and diluted to respective concentrations.
Binding quantity in the presence of 10 μM metergoline was regarded as the nonspecific binding, and a result of subtracting the nonspecific binding quantity from the total binding quantity was regarded as the specific binding quantity. After adding 4 ml of 50 mM Tris-HCl buffer (pH 7.4) and filtering under a reduced pressure using a GF/B glass filter, the filter was washed (4 ml×3) with the same buffer. By soaking the glass filter in 5 ml of a liquid scintillator (trade name: Aquasol-2), the radioactivity quantity was measured using a liquid scintillation counter.

[3] = tested on: male Wistar rats; assay: Defecation suppressing effect at the time of restraint stress loading (rat restraint stress defecation model); assay type: in vivo; settings: for dose from which a significant suppressing action (number of feces excreted) is shown: p.o.; for defecation-suppressing action: 10 mg/kg p.o., restraint stress loaded 30 minutes after the administration; for number of feces excreted, in comparison with the non-administration group: 1, 3 or 10 mg/kg administration group, N=10
Method: Test Method (4) Defecation Suppressing Effect at the Time of Restraint Stress Loading
The IBS-treating effect of the compound (I) of the present invention was evaluated using a test method in which the amount of excreted feces is measured by loading a restraint stress on rats (see “The Journal of Pharmacology Experimental Therapeutics”, (USA), 1992, vol. 261, p. 297-303).
The agent to be tested was administered to male Wistar rats (body weight 250 to 320 g, 10 animals for each group), and a restraint stress was loaded 30 minutes to 3 hours thereafter. A restraint cage (trade name: KN-468, 265 mm in width×95 mm in length×200 mm in height, Natsume Seisakusho, Tokyo) was used for the restraint stress loading, and the number of feces excreted during 1 hour after the stress loading was counted.

[4] = tested on: 5-HT2B receptor; settings: versus 5-HT1A, 5-HT1B, 5-HT2A, 5-HT2C, 5-HT3, 5-HT6, 5-HT7, α1, M1, D2 and the like; cited from earlier work
[5] = restraint stress loaded 1 hour after the administration

T2 sequence (P34969 whole entry): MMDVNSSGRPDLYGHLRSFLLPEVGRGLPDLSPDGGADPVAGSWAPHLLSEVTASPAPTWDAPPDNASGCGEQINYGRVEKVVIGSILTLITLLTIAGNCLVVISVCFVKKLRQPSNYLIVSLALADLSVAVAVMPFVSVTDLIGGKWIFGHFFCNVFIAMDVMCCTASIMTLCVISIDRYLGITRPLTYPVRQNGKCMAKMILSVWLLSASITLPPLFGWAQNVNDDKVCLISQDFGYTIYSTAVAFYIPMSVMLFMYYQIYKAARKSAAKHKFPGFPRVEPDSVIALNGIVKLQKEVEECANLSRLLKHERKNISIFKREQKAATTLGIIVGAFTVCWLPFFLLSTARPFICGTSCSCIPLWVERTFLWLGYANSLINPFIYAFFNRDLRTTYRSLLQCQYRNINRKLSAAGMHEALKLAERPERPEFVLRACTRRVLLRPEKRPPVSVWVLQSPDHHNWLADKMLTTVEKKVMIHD
T1 sequence (P41595 whole entry): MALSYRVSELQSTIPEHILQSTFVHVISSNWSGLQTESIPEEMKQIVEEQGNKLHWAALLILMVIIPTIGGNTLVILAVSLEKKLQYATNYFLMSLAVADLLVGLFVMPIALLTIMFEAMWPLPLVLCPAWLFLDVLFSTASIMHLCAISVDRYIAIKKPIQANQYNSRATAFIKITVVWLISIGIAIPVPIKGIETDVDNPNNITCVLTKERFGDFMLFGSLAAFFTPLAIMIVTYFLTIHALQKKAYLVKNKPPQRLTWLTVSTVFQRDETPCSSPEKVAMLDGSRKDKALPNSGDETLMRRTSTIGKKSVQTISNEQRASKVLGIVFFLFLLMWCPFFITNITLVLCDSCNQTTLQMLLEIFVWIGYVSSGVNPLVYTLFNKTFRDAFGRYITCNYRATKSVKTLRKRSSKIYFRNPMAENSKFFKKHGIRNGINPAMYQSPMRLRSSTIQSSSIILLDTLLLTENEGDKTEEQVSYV

| Structure (SMILES) | Ki [1] | Ki [2] | further results |
| --- | --- | --- | --- |
| CCc1c(C)n(Cc2ccc(F)cc2)c2ccc(C(=O)N[C@H]3CCN(C)C3)cc12 [Example 236] | 0.29 nM | 2.6 nM | dose from which a significant suppressing action (number of feces excreted) is shown ([3]; restraint stress loaded 3 hours after the administration): ≥ 0.3 mg/kg |
| Cc1nc2cc(C(=O)N=C(N)N)ccc2n1Cc1ccc(F)cc1 [Example 244, N-(diaminomethylene)-1-(4-fluorobenzyl)-2-methyl-1H-benzimidazol-5-carboxamide] |  |  | dose from which a significant suppressing action (number of feces excreted) is shown [3, 5]: ≥ 3 mg/kg |
| CC(C)c1cc(-c2ccc(F)c3ccccc23)nc(N)n1 [RS-127445, 2-amino-4-(4-fluoronaphth-1-yl)-6-isopropylpyrimidine, reference compound] |  |  | defecation-suppressing action [3]: did not show defecation-suppressing action; number of feces excreted, in comparison with the non-administration group [3]: Significant difference was not found; 5-HT2B receptor-selective by a factor [4]: ≥ 1000 times |
| CCc1c(C)n(Cc2ccc(F)cc2)c2ccc(C(=O)NCCN(C)C)cc12 [Example 226] | 0.19 nM | 4.3 nM | dose from which a significant suppressing action (number of feces excreted) is shown [3, 5]: ≥ 1 mg/kg |
| CCc1c(C)n(Cc2ccc(F)cc2)c2ccc(C(=O)N[C@@H]3CCN(C)C3)cc12 [Example 238] | 0.24 nM | 8 nM |  |
| CC(=O)c1c(C)n(Cc2ccc(F)cc2)c2ccc(C(=O)N=C(N)N)cc12 [Example 104, 3-acetyl-N-(diaminomethylene)-1-(4-fluorobenzyl)-2-methyl-1H-indole-5-carboxamide] | 0.088 nM | 1.3 nM |  |
| CC1CCN(CC[C@H]2CCCN2S(=O)(=O)c2cccc(O)c2)CC1 [SB-269970, (R)-3-(2-(2-(4-methylpiperidin-1-yl)ethyl)pyrrolidine-1-sulfonyl)phenol, reference compound] |  |  | defecation-suppressing action [3]: did not show the defecation-suppressing action; number of feces excreted, in comparison with the non-administration group [3]: Significant difference was not found |
| CCc1c(CC)n(Cc2ccc(F)cc2)c2ccc(C(=O)N[C@H]3CCN(C)C3)cc12 [Example 237] | 0.22 nM | 4.9 nM |  |

The next lines start with results.

| Ki [1] | Ki [2] | Structure (SMILES) | further results |
| --- | --- | --- | --- |
| 0.24 nM | 0.66 nM | Cc1c(C)n(Cc2ccc(F)cc2)c2ccc(C(=O)N=C(N)N)cc12 [Example 24] |  |
| 3.4 nM | 3.4 nM | Cc1c(C)n(Cc2ccc(F)cc2)c2ccc(C(=O)NCCN(C)C)cc12 [Example 156] |  |
| 2.7 nM | 2.8 nM | NC(N)=NC(=O)c1ccc2c(c1)[nH]c(=O)n2Cc1ccc(F)cc1 [Example 10, N-[1-(4-fluoro-benzyl)-2-oxo-2,3-dihydro-1H-benzimidazole-5-carbonyl]-guanidine hydrochloride] |  |
| 0.12 nM | 0.36 nM | Cc1c(S(C)(=O)=O)c2cc(C(=O)N=C(N)N)ccc2n1Cc1ccc(F)cc1 [Example 102] |  |
| 0.12 nM | 1.3 nM | CCc1c(C)n(Cc2ccc(F)cc2)c2ccc(C(=O)N=C(N)N)cc12 [Example 103, N-(diaminomethylene)-3-ethyl-1-(4-fluorobenzyl)-2-methyl-1H-indole-5-carboxamide] | dose from which a significant suppressing action (number of feces excreted) is shown [3, 5]: ≥ 1 mg/kg |
